Where “and” joins values, the source holds several entries; their conditions need not be identical. Identical values can stand only once. Inconclusive results and toxic doses are left out. Cut-off read from the data, not from the text of the source: active = T/C of 150% or more; inactive = T/C below 125%.
Test system: L1210 leukemia ip in BDF1 mice, survival T/C
Assay: NCI In Vivo Anticancer Drug Screen. Data for tumor model L1210 Leukemia (intraperitoneal) in B6D2F1 (BDF1) mice
Conditions: endpoint: mean survival time, higher = longer survival
Outline: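 In this screen, tumor-bearing mice given compound are compared to those given vehicle, and their survival values are reported as a treated-to-control quotient.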

[1] = dose: 100.0 mg/kg/injection, schedule: Q01DX009 (ip), vehicle: saline with Tween-80
[2] = dose: 100.0 mg/kg/injection, schedule: Q04DX003 (ip), vehicle: saline with Tween-80
[3] = dose: 200.0 mg/kg/injection, schedule: Q01DX009 (ip), vehicle: saline with Tween-80
[4] = dose: 200.0 mg/kg/injection, schedule: Q04DX003 (ip), vehicle: saline with Tween-80
[5] = dose: 400.0 mg/kg/injection, schedule: Q01DX009 (ip), vehicle: saline with Tween-80
[6] = dose: 400.0 mg/kg/injection, schedule: Q04DX003 (ip), vehicle: saline with Tween-80
[7] = dose: 100.0 mg/kg/injection, schedule: Q01DX001 (ip), vehicle: saline
[8] = dose: 200.0 mg/kg/injection, schedule: Q01DX001 (ip), vehicle: saline
[9] = dose: 400.0 mg/kg/injection, schedule: Q01DX001 (ip), vehicle: saline
[10] = dose: 100.0 mg/kg/injection, schedule: Q01DX001 (ip), vehicle: carboxymethylcellulose (CMC)
[11] = dose: 200.0 mg/kg/injection, schedule: Q01DX001 (ip), vehicle: carboxymethylcellulose (CMC)
[12] = dose: 400.0 mg/kg/injection, schedule: Q01DX001 (ip), vehicle: carboxymethylcellulose (CMC)
[13] = dose: 100.0 mg/kg/injection, schedule: Q01DX001 (ip), vehicle: Klucel (hydroxypropylcellulose) (HPC)
[14] = dose: 100.0 mg/kg/injection, schedule: Q04DX003 (ip), vehicle: saline
[15] = dose: 200.0 mg/kg/injection, schedule: Q04DX003 (ip), vehicle: saline
[16] = dose: 100.0 mg/kg/injection, schedule: Q04DX002 (ip), vehicle: saline with Tween-80
[17] = dose: 200.0 mg/kg/injection, schedule: Q04DX002 (ip), vehicle: saline with Tween-80
[18] = dose: 400.0 mg/kg/injection, schedule: Q04DX002 (ip), vehicle: saline with Tween-80

Measured: T/C

CCCCOC(=O)c1cocc1C(=O)OCCCC
inactive: [1] 99 % of control | [2] 98 % of control | [3] 92 % of control | [4] 104 % of control | [5] 90 % of control | [6] 93 % of control

Cc1cc(=O)[nH]c2nc(N)ccc12
inactive: dose: 50.0 mg/kg/injection, schedule: Q01DX001 (ip), vehicle: saline 101 % of control | [7] 93 % of control | [8] 93 % of control | [9] 101 % of control

C/C(=N/NC(N)=S)c1c(C)[nH]c2ccccc12
inactive: dose: 10.0 mg/kg/injection, schedule: Q01DX001 (ip), vehicle: acetone 96 % of control | dose: 20.0 mg/kg/injection, schedule: Q01DX001 (ip), vehicle: acetone 96 % of control | dose: 40.0 mg/kg/injection, schedule: Q01DX001 (ip), vehicle: acetone 95 % of control

CSc1ncc(CO)c(N2CC2)n1
inactive: dose: 100.0 mg/kg/injection, schedule: Q01DX Z (ip), vehicle: methylcellulose (MC) 87 % of control

COc1cc(NC(C)CCCN)c2nc(OCc3ccccc3)ccc2c1 (configuration not stated)
inactive: dose: 6.25 mg/kg/injection, schedule: Q01DX009 (ip), vehicle: saline with Tween-80 96 % of control | dose: 6.25 mg/kg/injection, schedule: Q04DX003 (ip), vehicle: saline with Tween-80 96 % of control | dose: 12.5 mg/kg/injection, schedule: Q01DX009 (ip), vehicle: saline with Tween-80 98 % of control | dose: 12.5 mg/kg/injection, schedule: Q04DX003 (ip), vehicle: saline with Tween-80 93 % of control | dose: 25.0 mg/kg/injection, schedule: Q01DX009 (ip), vehicle: saline with Tween-80 97 % of control | dose: 25.0 mg/kg/injection, schedule: Q04DX003 (ip), vehicle: saline with Tween-80 99 % of control

CC(C)COC(=O)C1(N)CCCC1
inactive: dose: 30.0 mg/kg/injection, schedule: Q01DX Z (ip), vehicle: saline 113 % of control | dose: 45.0 mg/kg/injection, schedule: Q01DX009 (ip), vehicle: saline 109 % of control | dose: 45.0 mg/kg/injection, schedule: Q01DX Z (ip), vehicle: saline 121 % of control | dose: 66.0 mg/kg/injection, schedule: Q01DX009 (ip), vehicle: saline 114 % of control | dose: 150.0 mg/kg/injection, schedule: Q01DX Z (ip), vehicle: saline 114 % of control and 118 % of control | dose: 224.0 mg/kg/injection, schedule: Q01DX Z (ip), vehicle: saline 120 % of control | dose: 336.0 mg/kg/injection, schedule: Q01DX Z (ip), vehicle: saline 103 % of control

O=C1CC2(CCNCC2)C(=O)N1N1CCCCCC1
inactive: [7] 110 % of control | [8] 112 % of control | [9] 100 % of control

O=C1NC(c2ccco2)N2C(=O)NC(c3ccco3)N12 (configuration not stated)
inactive: dose: 100.0 mg/kg/injection, schedule: Q01DX009 (ip), vehicle: gum acacia 90 % of control | dose: 100.0 mg/kg/injection, schedule: Q04DX003 (ip), vehicle: gum acacia 101 % of control | dose: 200.0 mg/kg/injection, schedule: Q01DX009 (ip), vehicle: gum acacia 88 % of control | dose: 200.0 mg/kg/injection, schedule: Q04DX003 (ip), vehicle: gum acacia 95 % of control | dose: 400.0 mg/kg/injection, schedule: Q01DX009 (ip), vehicle: gum acacia 88 % of control | dose: 400.0 mg/kg/injection, schedule: Q04DX003 (ip), vehicle: gum acacia 106 % of control

OC1CSCSC1
inactive: [1] 98 % of control | [2] 98 % of control | [3] 94 % of control | [4] 98 % of control | [5] 94 % of control | [6] 98 % of control

O=C1c2cc(Cl)ccc2-c2c(NC(=O)C(Cl)Cl)cc(Cl)cc21
inactive: [10] 91 % of control | [11] 93 % of control | [12] 96 % of control

CCCCn1c2ccccc2c2ccccc21
inactive: dose: 50.0 mg/kg/injection, schedule: Q04DX003 (ip), vehicle: saline with Tween-80 96 % of control | [2] 96 % of control | [4] 102 % of control

Nc1nc(/C=C/C=C/c2ccccc2)c(CCCCc2ccccc2)c(=O)[nH]1
inactive: dose: 25.0 mg/kg/injection, schedule: Q01DX001 (ip), vehicle: Klucel (hydroxypropylcellulose) (HPC) 94 % of control | dose: 50.0 mg/kg/injection, schedule: Q01DX001 (ip), vehicle: Klucel (hydroxypropylcellulose) (HPC) 98 % of control | [13] 96 % of control

OCC1OC(n2ccc3c(N4CCCCC4)ncnc32)C(O)C1O (configuration not stated)
inactive: dose: 50.0 mg/kg/injection, schedule: Q01DX001 (ip), vehicle: carboxymethylcellulose (CMC) 93 % of control | [10] 95 % of control | [11] 98 % of control | [12] 93 % of control

ClC(Cl)C(c1ccccc1)c1ccccc1
inactive: [13] 100 % of control | dose: 200.0 mg/kg/injection, schedule: Q01DX001 (ip), vehicle: Klucel (hydroxypropylcellulose) (HPC) 97 % of control | dose: 400.0 mg/kg/injection, schedule: Q01DX001 (ip), vehicle: Klucel (hydroxypropylcellulose) (HPC) 92 % of control

C/C(=N/N(C)C)c1cccc(C(F)(F)F)c1
inactive: [14] 98 % of control | [15] 116 % of control

O=C(Nc1ccc(Cl)cc1[N+](=O)[O-])Oc1cc2ccccc2cc1C(=O)Nc1ccccc1
inactive: [1] 100 % of control and 88 % of control | [16] 93 % of control and 94 % of control | [3] 86 % of control and 87 % of control | [17] 94 % of control and 101 % of control | [5] 93 % of control and 96 % of control | [18] 94 % of control and 90 % of control

O=C(O)C1C2CCCCCCC21 (configuration not stated)
inactive: dose: 50.0 mg/kg/injection, schedule: Q01DX009 (ip), vehicle: Klucel (hydroxypropylcellulose) (HPC) 108 % of control | dose: 100.0 mg/kg/injection, schedule: Q01DX005 (ip), vehicle: Klucel (hydroxypropylcellulose) (HPC) 95 % of control | dose: 100.0 mg/kg/injection, schedule: Q01DX009 (ip), vehicle: Klucel (hydroxypropylcellulose) (HPC) 108 % of control | dose: 200.0 mg/kg/injection, schedule: Q01DX005 (ip), vehicle: Klucel (hydroxypropylcellulose) (HPC) 103 % of control | dose: 200.0 mg/kg/injection, schedule: Q01DX009 (ip), vehicle: Klucel (hydroxypropylcellulose) (HPC) 97 % of control

O=[N+]([O-])c1ccc(C=Nc2cc(Cl)ccc2Cl)s1
inactive: [2] 98 % of control | [4] 88 % of control

CCC1C(=O)CCN(C)C1c1cc2ccccc2[nH]1 (configuration not stated)
inactive: [10] 105 % of control | [11] 91 % of control

O=C(O)CCc1ccccc1
inactive: dose: 50.0 mg/kg/injection, schedule: Q04DX003 (ip), vehicle: saline 98 % of control | [1] 92 % of control | [14] 104 % of control | [3] 95 % of control | [15] 95 % of control | [5] 86 % of control | dose: 400.0 mg/kg/injection, schedule: Q04DX003 (ip), vehicle: saline 98 % of control

CCN(C(=O)c1ccccc1Cl)C(c1ccco1)P(=O)(c1ccccc1)c1ccccc1 (configuration not stated)
inactive: [16] 93 % of control | [17] 86 % of control | [18] 117 % of control

CCC(C)NC(=O)Oc1cccc(NC(=O)OC)c1 (configuration not stated)
inactive: [2] 95 % of control | [4] 93 % of control | [6] 92 % of control

CCOP(=O)(OCC)C1=C(P(=O)(OCC)OCC)C(F)(F)C(F)(F)C1(F)F
inactive: dose: 9.5 mg/kg/injection, schedule: Q01DX001 (ip), vehicle: other 100 % of control | dose: 19.0 mg/kg/injection, schedule: Q01DX001 (ip), vehicle: other 100 % of control | dose: 38.0 mg/kg/injection, schedule: Q01DX001 (ip), vehicle: other 97 % of control

Brc1ccc2oc3ccccc3c2c1
inactive: dose: 50.0 mg/kg/injection, schedule: Q04DX002 (ip), vehicle: Klucel (hydroxypropylcellulose) (HPC) 92 % of control | dose: 100.0 mg/kg/injection, schedule: Q04DX002 (ip), vehicle: Klucel (hydroxypropylcellulose) (HPC) 93 % of control | dose: 100.0 mg/kg/injection, schedule: Q04DX002 (ip), vehicle: saline 104 % of control | dose: 200.0 mg/kg/injection, schedule: Q04DX002 (ip), vehicle: Klucel (hydroxypropylcellulose) (HPC) 96 % of control | dose: 400.0 mg/kg/injection, schedule: Q04DX002 (ip), vehicle: Klucel (hydroxypropylcellulose) (HPC) 100 % of control | dose: 400.0 mg/kg/injection, schedule: Q04DX002 (ip), vehicle: saline 93 % of control

Reference: PubChem BioAssay AID248 (DTP/NCI, 2004)
